Tests used:
hexobarbital oxidase = experiment: in vivo hexobarbital oxidase activity: hexobarbital sleeping time in rats (enzyme induction); set-up: species or system male Wistar rats; details: 40 mg./kg. oral; for Difference % (period of sleep vs. control): 24 hours, vs. control group, difference greater than 25% regarded as biologically significant; for Period of sleep, min. ± standard error: hexobarbital sodium 40 mg./kg. i.v. 24 hours later, control 28.50 ± 3.12 min.
Description: The enzyme-inducing effects of the new compounds were examined under in vivo conditions by determining the hexobarbital oxidase activity. The active agents of the formula (I) were administered to male Wistar rats weighing 50 to 60 g. in oral dosages of 40 mg./kg. The effect appears 24 hours after the administration of the enzyme-inducing substance. At that time the inactivation rate of hexobarbital was determined by administering intravenously 40 mg./kg. of hexobarbital sodium into the animals and measuring the time elapsed between the administration and the reappearance of the righting reflex. The period of sleep observed for the animals treated with the new compounds was compared to that observed in the control group (the animals belonging to the control group were treated with carrier substance only).
24 Hours after the administration of the enzyme-inducing compounds the in vivo inactivation of hexobarbital accelerates, which is evidenced by the shortening of the period of sleep. The results were expressed as percentage differences with respect to the controls. On the basis of the preliminary experiments a difference greater than 25% was regarded to be biologically significant.

hexobarbital = experiment: biological half life-time of hexobarbital (UV spectrophotometry of plasma); details: half-life of hexobarbital in treated rats, control 38 min.

| SMILES | Difference % (period of sleep vs. control) (hexobarbital oxidase) [%] | Period of sleep, min. ± standard error (hexobarbital oxidase) [min] | T1/2 (biological half life-time of hexobarbital) (hexobarbital) [min.] |
| --- | --- | --- | --- |
| O=NN1CC(=O)Nc2ccc([N+](=O)[O-])cc2C1c1ccccc1 (stereo not drawn) [Example 2, 4-Nitroso-5-phenyl-7-nitro-1,3,4,5-tetrahydro-2H-1,4-benzodiazepine-2-one] | -51 | 13.97 ± 2.10 | – |
| CN1C(=O)CN(N=O)C(c2ccccc2)c2cc(Cl)ccc21 (stereo not drawn) [Example 1, 1-Methyl-4-nitroso-5-phenyl-7-chloro-1,3,4,5-tetrahydro-2H-1,4-benzodiazepine-2-one] | -42 | 16.53 ± 1.93 | – |
| CN1C(=O)CN(N)C(c2ccccc2)c2cc(Cl)ccc21 (stereo not drawn) [Example 3, 1-Methyl-4-amino-5-phenyl-7-chloro-1,3,4,5-tetrahydro-2H-1,4-benzodiazepine-2-one] | -35 | 18.57 ± 2.06 | – |
| CN1C(=O)CN(N=Cc2ccc(O)cc2)C(c2ccccc2)c2cc(Cl)ccc21 (stereo not drawn) [Example 10, 1-Methyl-4-(p-hydroxy-benzalamino)-5-phenyl-7-chloro-1,3,4,5-tetrahydro-2H-1,4-benzodiazepine-2-one] | -41 | 16.82 ± 1.84 | – |
| CN1C(=O)CN(N=Cc2ccccc2)C(c2ccccc2)c2cc(Cl)ccc21 (stereo not drawn) [Example 5, 1-Methyl-4-benzalamino-5-phenyl-7-chloro-1,3,4,5-tetrahydro-2H-1,4-benzodiazepine-2-one] | -58 | 11.96 ± 1.38 | 26 |
| CC(=O)NN1CC(=O)N(C)c2ccc(Cl)cc2C1c1ccccc1 (stereo not drawn) [Example 13, 1-Methyl-4-acetylamino-5-phenyl-7-chloro-1,3,4,5-tetrahydro-2H-1,4-benzodiazepine-2-one] | -29 | 20.24 ± 2.17 | – |
| CN1C(=O)CN(NC(=O)CCl)C(c2ccccc2)c2cc(Cl)ccc21 (stereo not drawn) [Example 12, 1-Methyl-4-chloroacetamino-5-phenyl-7-chloro-1,3,4,5-tetrahydro-2H-1,4-benzodiazepine-2-one] | -33 | 19.10 ± 2.28 | – |
